Measurements as given in the METLIN SMRT retention time set (Domingo-Almenara et al. 2019).

Test: gradient 5% acetonitrile 3 min, to 50% in 2 min, to 85% in 15 min, held 3 min, 100 µL/min
Details: column: Zorbax Extend-C18 2.1 x 50 mm; eluents: water / acetonitrile, 0.1% formic acid
Summary of the method: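 Over 3 months, pure standards in mixtures of ~100 molecules were run by HPLC coupled to a quadrupole time-of-flight mass spectrometer in positive and negative ionization mode. The column was a Zorbax Extend-C18 (2.1 × 50 mm, 1.8 μm) at 100 μL/min, eluted with water and acetonitrile each holding 0.1% formic acid, with 40 μL dead and 900 μL dwell volumes. Retention time was determined from adduct peaks chosen by software and checked manually.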

Row | Compound | RP-LC retention time
1 | CCNC(=O)C(=O)NCC(c1ccc2c(c1)CCCN2C)N1CCCC1 (stereo unspecified) | 615 s
2 | COC(=O)c1cc(OC)c(OC)cc1NC(=O)NCCc1c[nH]c2ccccc12 | 876 s
3 | CCn1cc(-c2nc(C)c(C(=O)NCc3ccc4c(c3)OCO4)s2)c2cccnc21 | 925 s
4 | COc1ccc2c(c1)C1(CCN(C(=O)c3ccc(OC)c(OC)c3)C1)C(=O)N2C (stereo unspecified) | 886 s
5 | COc1ccc(NC(=O)c2[nH]c3cc(C)sc3c2CN2CCCC2)c(C)c1 | 708 s
6 | Cc1cc(-c2c(C)sc(C)c2S(=O)(=O)NCCc2ccc(Cl)cc2)n[nH]1 | 1130 s
7 | COc1cc(-c2nc3ncccn3c2Nc2ccc3c(c2)OCO3)ccc1O | 621 s
8 | Cc1cccc(-c2nc3nc(C)cc(N(CCO)CCO)n3n2)c1 | 615 s
9 | CCOC(=O)c1cnc2nc(C)ccc2c1Nc1cccc(Cl)c1 | 752 s
10 | O=C(c1ccccc1)c1ccc[nH]1 | 842 s
11 | O=C(NCc1ccc(F)cc1)Nc1cnc2c(c1)CCC2 | 531 s
12 | Cc1nc(-c2noc(-c3ccc(F)cc3)n2)cn1CC(=O)Nc1cccc(F)c1 | 897 s
13 | CCn1cc(-c2ccncc2)cc1C(=O)NCc1ccc(Br)cc1 | 698 s
14 | CC(C)NC(=O)N1CCCN(Cc2cccs2)CC1 | 564 s
15 | CCNC(=O)c1nccnc1NC(=O)c1ccccc1 | 743 s
16 | O=C(c1ccc(Cl)cc1)N1CCc2nc(-c3ccc(Cl)cc3)ncc2C1 | 1140 s
17 | CCCN(CC1CCOC1)C(=O)NCc1ccc(F)cc1 (stereo unspecified) | 758 s
18 | Cc1cc(C(=O)NCC(C)C)c2cccc(C)c2n1 | 697 s
19 | O=C(NCc1cc(F)cc(F)c1)c1ccc(NC(=O)C2CCC2)cc1N1CCOCC1 | 871 s
20 | COc1cn(CC(=O)NCc2ccco2)c(CO)cc1=O | 544 s

Row | Compound | RP-LC retention time
21 | CC(C)CCNC(=O)C1CC(=O)N(CCc2c[nH]c3ccc(Cl)cc23)C1 (stereo unspecified) | 809 s
22 | CCCCCCNCc1ccc2c(c1)n(C)c(=O)n2C | 604 s
23 | O=C(c1cnccn1)N1CCC(N2C(=O)C(O)C23CCCCC3)CC1 (stereo unspecified) | 590 s
24 | CCN1CCCC1CNS(=O)(=O)c1cc(-c2nc(C)c(C(=O)N3CCCC3)s2)cs1 (stereo unspecified) | 604 s
25 | Cc1cc(C)c(NS(=O)(=O)c2c(C)cc(C)cc2C)c(C)c1 | 1120 s
26 | O=C(Cn1c(=O)nc(-c2ccccc2)c2ccccc21)NCCc1ccccn1 | 590 s
27 | CCOC(=O)C(=O)NCc1nnnn1C1CCCCC1 | 655 s
28 | O=C(C1CCC1)N1CCC(c2noc(-c3ccncc3)n2)C1 (stereo unspecified) | 693 s
29 | O=C(CCSc1ccccc1)NCCOc1ccc2nnc(-c3ccccc3)n2n1 | 736 s
30 | COc1cccc(-c2cc(C(=O)N3CC(c4nc(-c5cccs5)no4)C3)[nH]n2)c1 | 798 s
31 | CCCNc1cc(N2CCCC(CCC(=O)Nc3ccc(OC)cc3OC)C2)ncn1 (stereo unspecified) | 707 s
32 | CC(C)CN1CCn2cc(C(=O)NC(C)c3ccccc3)nc2C1 (stereo unspecified) | 613 s
33 | CCc1ccc(NC(=O)c2cccn2Cc2noc(C)n2)cc1 | 910 s
34 | Cc1cc(C)n2c(Nc3ccccc3C)c(-c3ccccc3)nc2n1 | 728 s
35 | CN(C)c1ccc(/C=C/C(=O)c2ccccc2)cc1Br | 1170 s
36 | Cc1ccc2cc(CCC(=O)NCCN3CCCCCC3)c(=O)[nH]c2c1 | 628 s
37 | COCc1c(C(=O)O)nnn1-c1ccc(C)cc1F | 722 s
38 | CCCN(C)C(=O)c1ccc2nc(-c3ccccc3)cn2c1 | 618 s
39 | CC(C)CCNC(=O)Cc1cn(C)c2ncccc12 | 679 s
40 | CCOc1ccc(CNC(=O)Cc2csc3nc(-c4ccc(C)c(C)c4)cn23)cc1 | 847 s

Continued, values first:

Row | RP-LC retention time | Compound
41 | 894 s | O=C(c1ccc(F)cc1F)N1CCN(c2cc(-c3ccc(Cl)cc3)[nH]n2)CC1
42 | 940 s | Cc1ccc2ncn(C3CCN(S(=O)(=O)c4ccccc4F)CC3)c(=O)c2c1
43 | 636 s | CCOC(=O)N1CCN(C(=O)c2cc(S(=O)(=O)N3CCOCC3)ccc2OC)CC1
44 | 713 s | Cc1ccc(S(=O)(=O)Nc2ccc(-c3cn4cccnc4n3)cc2)cc1[N+](=O)[O-]
45 | 931 s | Cc1ccc(C(=O)N2CCC(COc3ccc(C(=O)NC(C)C)cc3)CC2)c(C)c1
46 | 891 s | O=C(Nc1cnn(-c2ncc(N3CCCCC3)cn2)c1)Nc1ccccc1C(F)(F)F
47 | 966 s | Cc1ccc(CNC(=O)CN2C(=O)C3CCCCN3c3ccc(S(=O)(=O)N4CCCC4)cc32)cc1 (stereo unspecified)
48 | 722 s | CC(NC(=O)c1cc(-c2ccc(F)cc2)cn1C)c1ccccn1 (stereo unspecified)
49 | 806 s | COc1ccccc1C1(CNS(=O)(=O)c2ccc(NC(=O)C(C)C)cc2)CCOCC1
50 | 1010 s | CCCc1ccc(S(=O)(=O)N2CCC(n3c(-c4ccco4)nc4cccnc43)C2)cc1 (stereo unspecified)
51 | 905 s | Cc1ccc(S(=O)(=O)N2CCC(CCNC(=O)NC3CCCCC3)CC2)cc1
52 | 995 s | Cc1ccc(C)c(S(=O)(=O)N2CCN(c3ccc(-n4nc(C)c(C)c4C)nn3)CC2)c1
53 | 832 s | Cc1ccc2c(c1)N(Cc1ccccc1)N=C(C(=O)N1CCOCC1)S2(=O)=O
54 | 807 s | CCCCNc1nc(-c2ccc(OC)cc2)nc2ccccc12
55 | 1130 s | Cc1cc(C)cc(-n2c(-c3ccc(Cl)cc3)cn3c4c(=O)n(C)c(=O)n(C)c4nc23)c1
56 | 672 s | Cc1cc(C)n(Cc2ccc(C(=O)N3CCN(Cc4noc5ccccc45)CC3)o2)n1
57 | 1250 s | Cc1ccc(Cl)cc1N1CCN(c2ncc(S(=O)(=O)c3ccccc3)c(N)n2)CC1
58 | 601 s | Cc1cccc2c(=O)c3c([nH]c12)CCN(CC(=O)NCc1ccccc1)C3
59 | 634 s | Cc1cccc(N2CCN(Cc3nc4nc(C)cc(N(C)C)n4n3)CC2)c1
60 | 790 s | O=C(Cn1nc(N2CCOCC2)c2ccccc2c1=O)Nc1ccccc1F
61 | 838 s | CCc1ccccc1NC(=O)Cn1nc2nc(N3CCCC(C)C3)ccn2c1=O (stereo unspecified)
62 | 823 s | COc1ccc(OC)c(S(=O)(=O)N2CCOc3ccc(NC(=O)C4CC4)cc3C2)c1
63 | 779 s | CC1=C(c2ccc(Cl)cc2)S(=O)(=O)N=C1N1CCC(NC(=O)C2CCCO2)CC1 (stereo unspecified)
64 | 1070 s | CCc1cccc(C)c1NC(=O)Cn1cnc2c(sc3nc(-c4ccccc4)ccc32)c1=O
65 | 966 s | O=C(Cc1c(Sc2ccc(F)cc2)[nH]c2ccccc12)N1CCN(c2ncccn2)CC1
66 | 940 s | O=C(Nc1ccccc1F)N1CCCC1c1nc(-c2ccccc2)no1 (stereo unspecified)

Row | RP-LC retention time | Compound
67 | 685 s | CC(=O)Nc1ccc(CC(=O)NC(C)C(=O)N2CCCc3ccccc32)cc1 (stereo unspecified)
68 | 812 s | CCCCNC(=O)C1CCCN(C(=O)Nc2ccc(NC(=O)Nc3ccccc3)cc2)C1 (stereo unspecified)
69 | 616 s | Cc1ccc2nc(Nc3nccc(C)n3)nc(C)c2c1
70 | 733 s | COc1ccccc1CNC(=O)C1CCN(S(=O)(=O)c2cn(C(C)C)cn2)CC1
71 | 914 s | CCCN1C(=O)CCc2cc(NS(=O)(=O)c3ccc(C(F)(F)F)cc3)ccc21
72 | 670 s | Cc1ccc2cc(CCC(=O)N3CCN(c4ncccn4)CC3)c(=O)[nH]c2c1
73 | 672 s | COc1ccc(OC)c(CNC(=O)C2CCCN(c3nnc4cccc(C)n34)C2)c1 (stereo unspecified)
74 | 648 s | Oc1cc2c(c(Cl)c1O)CCNC[C@@H]2c1ccccc1
75 | 628 s | CN(C)CCNC(=O)c1c(-c2ccccc2)c(-c2ccccc2)nn(C)c1=O
76 | 1040 s | Cc1ccc(S(=O)(=O)N2CCCC2)cc1-c1nnc(-c2ccc(F)cc2)o1
77 | 902 s | O=C(CCC1CCCN(S(=O)(=O)c2ccccc2)C1)N1CCCCC1 (stereo unspecified)
78 | 1050 s | Cc1ccccc1CNC(=O)C1(C)CCN(S(=O)(=O)c2ccc(Br)s2)CC1
79 | 610 s | O=C(Cc1c[nH]c2ccccc12)N1CCN(C(=O)c2cc(-c3cccnc3)n[nH]2)CC1
80 | 976 s | CCOc1ccc2nc(NC(=O)C3CCCN3S(=O)(=O)c3cc(C(=O)OC)n(C)c3)sc2c1 (stereo unspecified)
81 | 726 s | CCNC(=O)C1CCN(S(=O)(=O)c2cc(Cl)ccc2OC)CC1
82 | 697 s | COCCC(=O)N1CCCN(C2=NS(=O)(=O)C(c3ccc(F)cc3)=C2C)CC1
83 | 686 s | COc1cc(=O)n2c(c1C(=O)NC1CCc3ccccc31)CCCC2 (stereo unspecified)
84 | 718 s | CCc1ccccc1NC(=O)Cn1ncc2c(c1=O)N(C1CC1)C(=O)CS2
85 | 844 s | CCN1N=C(C(=O)N2CCC(C)CC2)S(=O)(=O)c2ccccc21
86 | 833 s | CCOC(=O)CNc1nc(-c2cccc([N+](=O)[O-])c2)nc2ccccc12
87 | 1020 s | Cc1ccc(-c2csc(-c3cccn3CC(=O)NCC3CCCO3)n2)cc1 (stereo unspecified)
88 | 659 s | CCOC(=O)c1csc(NC(=O)C2CCCN(c3ccc(-c4ccccc4)nn3)C2)n1 (stereo unspecified)
89 | 1040 s | Cc1ccc(C)c(N2CCN(C(=O)Cn3nc(C(=O)N4CCCC4)c4ccccc43)CC2)c1
90 | 945 s | CC1CCN(S(=O)(=O)c2cc(-c3nnc(C4CC4)o3)co2)CC1
91 | 738 s | Cc1nn(C)cc1CN(C)C(=O)c1ccc(-c2ccccc2)cc1
